Reference: ChEMBL document CHEMBL1154856, “Leuconicines A-G and (-)-eburnamaline, biologically active strychnan and eburnan alkaloids from Leuconotis” (J Nat Prod, 2009)

Legend:
Format in all cases: functional, cell-based
KB = test: Cytotoxicity against vincristine-sensitive human KB cells
[1] = Cytotoxicity against vincristine-resistant human KB/VJ300 cells in presence of 0.1 ug/ml vincristine
[2] = Cytotoxicity against vincristine-resistant human KB/VJ300 cells
[3] = Cytotoxicity against vincristine-resistant human KB/VJ300 cells in presence of 0.121 uM vincristine

Which results are given for `CC[C@@]12CCCN3CCc4c(n(c5ccccc45)[C@H](O)[C@@H]1O)[C@H]32`?
IC50 (KB): > 25 µg/mL; IC50 [1]: > 25 µg/mL; IC50 [2]: > 25 µg/mL

Which results are given for `CC[C@@H]1CN2CC[C@]34c5ccccc5-n5c3c(cc(C(N)=O)c5=O)[C@H]1C[C@H]24` [LEUCONICINE A]?
IC50 (KB): > 25 µg/mL; IC50 [1]: 2.57 µg/mL; IC50 [3]: 7.12 µM; IC50 [2]: > 25 µg/mL

Which results are given for `CC[C@@H]1CN2CC[C@]34c5ccccc5-n5c3c(cc(C(=O)OC)c5=O)[C@H]1C[C@H]24` [LEUCONICINE B]?
IC50 (KB): > 25 µg/mL; IC50 [1]: 1.98 µg/mL; IC50 [3]: 5.27 µM; IC50 [2]: > 25 µg/mL

With `CCC1=CN2CC[C@]34c5ccccc5-n5c3c(cc(C(N)=O)c5=O)[C@H]1C[C@H]24` [LEUCONICINE C] as the compound, how does the IC50 (KB) read?
The IC50 was > 25 µg/mL.

What about the IC50 [1] of the same compound?
The IC50 was 3.86 µg/mL.

And the IC50 [3]?
Its IC50 is 10.8 µM.

And the IC50 [2]?
Its IC50 is > 25 µg/mL.

With `CCC1=CN2CC[C@]34c5ccccc5-n5c3c(cc(C(=O)O)c5=O)[C@H]1C[C@H]24` [LEUCONICINE E] as the compound, how does the IC50 (KB) read?
Its IC50 is > 25 µg/mL.

What about the IC50 [1] of the same compound?
Its IC50 is 13.5 µg/mL.

And the IC50 [3]?
The IC50 was 37.6 µM.

What about the IC50 [2] of the same compound?
The IC50 was > 25 µg/mL.

For `CC[C@@H]1C[N+]2([O-])CC[C@]34c5ccccc5-n5c3c(cc(C(N)=O)c5=O)[C@H]1C[C@@H]42` (some centres undefined) [LEUCONICINE F], which IC50 (KB) is on record?
Its IC50 is > 25 µg/mL.

What about the IC50 [1] of the same compound?
Its IC50 is > 25 µg/mL.

And the IC50 [2]?
The IC50 was > 25 µg/mL.

Which IC50 (KB) does the source give for `CC[C@@H]1C[N+]2([O-])CC[C@]34c5ccccc5-n5c3c(cc(C(=O)OC)c5=O)[C@H]1C[C@@H]42` (some centres undefined) [LEUCONICINE G] here?
Its IC50 is > 25 µg/mL.

And the IC50 [1]?
Its IC50 is > 25 µg/mL.

What about the IC50 [2] of the same compound?
The IC50 was > 25 µg/mL.

With `CCC1=CN2CC[C@]34c5ccccc5-n5c3c(cc(C(=O)OC)c5=O)[C@H]1C[C@H]24` [MELODININE B] as the compound, how does the IC50 (KB) read?
Its IC50 is > 25 µg/mL.

And the IC50 [1]?
The IC50 was 4.62 µg/mL.

And the IC50 [3]?
Its IC50 is 12.3 µM.

And the IC50 [2]?
The IC50 was > 25 µg/mL.
